Reference: ChEMBL document CHEMBL3832032, “DailyMed|setid=2238e083-08f2-0aa8-59b7-16b6d68dbd48 | ALPRAZOLAM - alprazolam tablet|Apotex Corp”

Legend:
Assay type in all cases: ADME, organism-based
[1] = (§1) Pharmacokinetic parameters for Alprazolam evaluated after oral administration of alprazolam to subjects of different ages and health conditions.; set-up: route oral, dose Range 0.5 to 3; details: human, in vivo, dosed compound id 23, dosed compound name ALPRAZOLAM, gender male and female, tissue Plasma
[2] = system: Homo sapiens; assay: as §1; set-up: route oral, dose Range 0.5 to 3; details: in vivo, po, dosed compound id 23, dosed compound name ALPRAZOLAM, gender male and female, tissue Plasma
[3] = system: Homo sapiens; assay: Evaluation of pharmacokinetic parameters for Alprazolam following single oral administration of Alprazolam, and following co-administration with multiple doses of carbamazepine.; details: in vivo, dose 0.8 mg, dosed compound id 23, dosed compound name ALPRAZOLAM, regimen Single dose, tissue Plasma
[4] = interact cpd dose 300 mg, inter cpd dos duration 10 days

Cc1nnc2n1-c1ccc(Cl)cc1C(c1ccccc1)=NC2 [ALPRAZOLAM]
Cmax ([1]; po): 8 to 37 ng/mL
Tmax ([1]; dose Range 0.5 to 3 mg, route oral): 1 to 2 h
t1/2 ([2]; dose Range 0.5 to 3 mg): 11.2 h
t1/2 [2]: 16.3 hr [middle of 5 runs]
CL [3, 4]: 2.13 mL/min/kg
t1/2 [3, 4]: 7.7 h
CL [3]: 0.9 mL/min/kg
t1/2 [3]: 17.1 h
